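Growth conditions: 96-well plates. Treatment: test compound, 48 hours, 5 concentrations. Analysis: linear interpolation between bracketing concentrations; unreached endpoints set to highest concentration. GI50: concentration for 50% inhibition of growth. TGI denotes the concentration required for complete inhibition of growth.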
Tests used:
Test in all cases: inhibition of tumour cell growth, NCI panel, 48 h
EKVX NSCLC = test system: EKVX NSCLC
SF-268 CNS = test system: SF-268 CNS
NCI-H23 lung = test system: NCI-H23 lung
A498 renal = test system: A498 renal
PC-3 prostate = test system: PC-3 prostate
T-47D breast = test system: T-47D breast
SF-295 CNS = test system: SF-295 CNS
SNB-75 CNS = test system: SNB-75 CNS
U251 CNS = test system: U251 CNS
OVCAR-4 ovarian = test system: OVCAR-4 ovarian
786-0 renal = test system: 786-0 renal
UACC-62 melanoma = test system: UACC-62 melanoma
SN12C renal = test system: SN12C renal
UACC-257 melanoma = test system: UACC-257 melanoma
LOX IMVI melanoma = test system: LOX IMVI melanoma
NCI-H522 lung = test system: NCI-H522 lung
HCT-116 colon = test system: HCT-116 colon
COLO 205 colon = test system: COLO 205 colon
MALME-3M melanoma = test system: MALME-3M melanoma
MOLT-4 leukemia = test system: MOLT-4 leukemia
OVCAR-5 ovarian = test system: OVCAR-5 ovarian
RXF 393 renal = test system: RXF 393 renal
CAKI-1 renal = test system: CAKI-1 renal
OVCAR-8 ovarian = test system: OVCAR-8 ovarian
MCF7 breast = test system: MCF7 breast
ACHN renal = test system: ACHN renal
MDA-MB-435 = test system: MDA-MB-435
SR leukemia = test system: SR leukemia
NCI-H460 lung = test system: NCI-H460 lung
RPMI-8226 leukemia = test system: RPMI-8226 leukemia
SK-MEL-2 melanoma = test system: SK-MEL-2 melanoma
BT-549 breast = test system: BT-549 breast
HL-60(TB) leukemia = test system: HL-60(TB) leukemia
UO-31 renal = test system: UO-31 renal
SF-539 CNS = test system: SF-539 CNS
SNB-19 CNS = test system: SNB-19 CNS
HOP-62 NSCLC = test system: HOP-62 NSCLC
SW-620 colon = test system: SW-620 colon
CCRF-CEM leukemia = test system: CCRF-CEM leukemia
SK-MEL-5 melanoma = test system: SK-MEL-5 melanoma
SK-OV-3 ovarian = test system: SK-OV-3 ovarian
DU-145 prostate = test system: DU-145 prostate
SK-MEL-28 melanoma = test system: SK-MEL-28 melanoma
HOP-92 NSCLC = test system: HOP-92 NSCLC
NCI-H226 lung = test system: NCI-H226 lung
HS 578T breast = test system: HS 578T breast
TK-10 renal = test system: TK-10 renal
KM12 colon = test system: KM12 colon
M14 melanoma = test system: M14 melanoma
K-562 leukemia = test system: K-562 leukemia
A549 NSCLC = test system: A549 NSCLC
HCT-15 colon = test system: HCT-15 colon
HT29 colon = test system: HT29 colon
NCI/ADR-RES ovarian = test system: NCI/ADR-RES ovarian
MDA-MB-231 breast = test system: MDA-MB-231 breast
HCC-2998 colon = test system: HCC-2998 colon

Question: Which GI50 (EKVX NSCLC) does the source give for `CC(=O)O[C@H]([C@H](OC(C)=O)[C@H](C)OC(C)=O)[C@@H](/C=C/[C@H]1CC=CC(=O)O1)OC(C)=O` here?
Answer: > 100 µM

Question: And the TGI (EKVX NSCLC)?
Answer: > 100 µM

Question: And the GI50 (SF-268 CNS)?
Answer: 41.6 µM

Question: What about the TGI (SF-268 CNS) of the same compound?
Answer: > 100 µM

Question: What about the GI50 (NCI-H23 lung) of the same compound?
Answer: 66.6 µM

Question: And the TGI (NCI-H23 lung)?
Answer: > 100 µM

Question: And the GI50 (A498 renal)?
Answer: 41.4 µM

Question: And the TGI (A498 renal)?
Answer: > 100 µM

Question: What about the GI50 (PC-3 prostate) of the same compound?
Answer: 17.6 µM

Question: What about the TGI (PC-3 prostate) of the same compound?
Answer: > 100 µM

Question: And the GI50 (T-47D breast)?
Answer: 38.3 µM

Question: And the TGI (T-47D breast)?
Answer: > 100 µM

Question: What about the GI50 (SF-295 CNS) of the same compound?
Answer: 20.6 µM

Question: What about the TGI (SF-295 CNS) of the same compound?
Answer: 59.8 µM

Question: What about the GI50 (SNB-75 CNS) of the same compound?
Answer: 22.2 µM

Question: What about the TGI (SNB-75 CNS) of the same compound?
Answer: 61.7 µM

Question: What about the GI50 (U251 CNS) of the same compound?
Answer: > 100 µM

Question: And the TGI (U251 CNS)?
Answer: > 100 µM

Question: What about the GI50 (OVCAR-4 ovarian) of the same compound?
Answer: 34.7 µM

Question: And the TGI (OVCAR-4 ovarian)?
Answer: > 100 µM

Question: What about the GI50 (786-0 renal) of the same compound?
Answer: 97.3 µM

Question: And the TGI (786-0 renal)?
Answer: > 100 µM

Question: And the GI50 (UACC-62 melanoma)?
Answer: > 100 µM

Question: And the TGI (UACC-62 melanoma)?
Answer: > 100 µM

Question: And the GI50 (SN12C renal)?
Answer: 83.3 µM

Question: What about the TGI (SN12C renal) of the same compound?
Answer: > 100 µM

Question: And the GI50 (UACC-257 melanoma)?
Answer: > 100 µM

Question: And the TGI (UACC-257 melanoma)?
Answer: > 100 µM

Question: And the GI50 (LOX IMVI melanoma)?
Answer: 55.1 µM

Question: And the TGI (LOX IMVI melanoma)?
Answer: > 100 µM

Question: What about the GI50 (NCI-H522 lung) of the same compound?
Answer: 15.6 µM

Question: And the TGI (NCI-H522 lung)?
Answer: 36.2 µM

Question: And the GI50 (HCT-116 colon)?
Answer: 33 µM

Question: And the TGI (HCT-116 colon)?
Answer: > 100 µM

Question: And the GI50 (COLO 205 colon)?
Answer: 37.1 µM

Question: And the TGI (COLO 205 colon)?
Answer: > 100 µM

Question: And the GI50 (MALME-3M melanoma)?
Answer: > 100 µM

Question: And the TGI (MALME-3M melanoma)?
Answer: > 100 µM

Question: And the GI50 (MOLT-4 leukemia)?
Answer: 72.7 µM

Question: What about the TGI (MOLT-4 leukemia) of the same compound?
Answer: > 100 µM

Question: And the GI50 (OVCAR-5 ovarian)?
Answer: > 100 µM

Question: And the TGI (OVCAR-5 ovarian)?
Answer: > 100 µM

Question: What about the GI50 (RXF 393 renal) of the same compound?
Answer: > 100 µM

Question: And the TGI (RXF 393 renal)?
Answer: > 100 µM

Question: What about the GI50 (CAKI-1 renal) of the same compound?
Answer: 79.7 µM

Question: What about the TGI (CAKI-1 renal) of the same compound?
Answer: > 100 µM

Question: What about the GI50 (OVCAR-8 ovarian) of the same compound?
Answer: 51.2 µM

Question: And the TGI (OVCAR-8 ovarian)?
Answer: > 100 µM

Question: What about the GI50 (MCF7 breast) of the same compound?
Answer: 39 µM

Question: And the TGI (MCF7 breast)?
Answer: > 100 µM

Question: And the GI50 (ACHN renal)?
Answer: > 100 µM

Question: And the TGI (ACHN renal)?
Answer: > 100 µM

Question: And the GI50 (MDA-MB-435)?
Answer: 41.2 µM

Question: What about the TGI (MDA-MB-435) of the same compound?
Answer: > 100 µM

Question: And the GI50 (SR leukemia)?
Answer: 73.7 µM

Question: What about the TGI (SR leukemia) of the same compound?
Answer: > 100 µM

Question: What about the GI50 (NCI-H460 lung) of the same compound?
Answer: 59.4 µM

Question: And the TGI (NCI-H460 lung)?
Answer: > 100 µM

Question: And the GI50 (RPMI-8226 leukemia)?
Answer: 26.3 µM

Question: What about the TGI (RPMI-8226 leukemia) of the same compound?
Answer: 89.8 µM

Question: And the GI50 (SK-MEL-2 melanoma)?
Answer: 36.4 µM

Question: What about the TGI (SK-MEL-2 melanoma) of the same compound?
Answer: > 100 µM

Question: And the GI50 (BT-549 breast)?
Answer: 21.9 µM

Question: And the TGI (BT-549 breast)?
Answer: 72.6 µM

Question: What about the GI50 (HL-60(TB) leukemia) of the same compound?
Answer: 59.4 µM

Question: And the TGI (HL-60(TB) leukemia)?
Answer: > 100 µM

Question: And the GI50 (UO-31 renal)?
Answer: > 100 µM

Question: And the TGI (UO-31 renal)?
Answer: > 100 µM

Question: What about the GI50 (SF-539 CNS) of the same compound?
Answer: 37.2 µM

Question: And the TGI (SF-539 CNS)?
Answer: > 100 µM

Question: And the GI50 (SNB-19 CNS)?
Answer: 80.5 µM

Question: And the TGI (SNB-19 CNS)?
Answer: > 100 µM

Question: What about the GI50 (HOP-62 NSCLC) of the same compound?
Answer: 48.5 µM

Question: What about the TGI (HOP-62 NSCLC) of the same compound?
Answer: > 100 µM

Question: What about the GI50 (SW-620 colon) of the same compound?
Answer: 37.6 µM

Question: And the TGI (SW-620 colon)?
Answer: > 100 µM

Question: And the GI50 (CCRF-CEM leukemia)?
Answer: 36.7 µM

Question: What about the TGI (CCRF-CEM leukemia) of the same compound?
Answer: > 100 µM

Question: And the GI50 (SK-MEL-5 melanoma)?
Answer: 33.2 µM

Question: And the TGI (SK-MEL-5 melanoma)?
Answer: > 100 µM

Question: And the GI50 (SK-OV-3 ovarian)?
Answer: > 100 µM

Question: What about the TGI (SK-OV-3 ovarian) of the same compound?
Answer: > 100 µM

Question: And the GI50 (DU-145 prostate)?
Answer: 38.2 µM

Question: And the TGI (DU-145 prostate)?
Answer: > 100 µM

Question: And the GI50 (SK-MEL-28 melanoma)?
Answer: 39.2 µM

Question: What about the TGI (SK-MEL-28 melanoma) of the same compound?
Answer: > 100 µM

Question: And the GI50 (HOP-92 NSCLC)?
Answer: 23.5 µM

Question: What about the TGI (HOP-92 NSCLC) of the same compound?
Answer: 62.4 µM

Question: And the GI50 (NCI-H226 lung)?
Answer: > 100 µM

Question: And the TGI (NCI-H226 lung)?
Answer: > 100 µM

Question: And the GI50 (HS 578T breast)?
Answer: 65.5 µM

Question: And the TGI (HS 578T breast)?
Answer: > 100 µM

Question: And the GI50 (TK-10 renal)?
Answer: > 100 µM

Question: And the TGI (TK-10 renal)?
Answer: > 100 µM

Question: What about the GI50 (KM12 colon) of the same compound?
Answer: > 100 µM

Question: What about the TGI (KM12 colon) of the same compound?
Answer: > 100 µM

Question: What about the GI50 (M14 melanoma) of the same compound?
Answer: 67.3 µM

Question: And the TGI (M14 melanoma)?
Answer: > 100 µM

Question: And the GI50 (K-562 leukemia)?
Answer: > 100 µM

Question: And the TGI (K-562 leukemia)?
Answer: > 100 µM

Question: What about the GI50 (A549 NSCLC) of the same compound?
Answer: > 100 µM

Question: What about the TGI (A549 NSCLC) of the same compound?
Answer: > 100 µM

Question: What about the GI50 (HCT-15 colon) of the same compound?
Answer: 44.9 µM

Question: And the TGI (HCT-15 colon)?
Answer: > 100 µM

Question: What about the GI50 (HT29 colon) of the same compound?
Answer: 55.8 µM

Question: What about the TGI (HT29 colon) of the same compound?
Answer: > 100 µM

Question: What about the GI50 (NCI/ADR-RES ovarian) of the same compound?
Answer: > 100 µM

Question: And the TGI (NCI/ADR-RES ovarian)?
Answer: > 100 µM

Question: What about the GI50 (MDA-MB-231 breast) of the same compound?
Answer: > 100 µM

Question: And the TGI (MDA-MB-231 breast)?
Answer: > 100 µM

Question: What about the GI50 (HCC-2998 colon) of the same compound?
Answer: 24.1 µM

Question: What about the TGI (HCC-2998 colon) of the same compound?
Answer: 68.9 µM

Reference: PubChem BioAssay (NCI)
